In one test the test system is Aspergillus oryzae. Nature of the test: Antifungal activity against Aspergillus oryzae ATCC 10124 after 48 hrs by agar diffusion bioautography method. It counts as functional, organism-based. (Agar diffusion results depend on both activity and mobility in agar.)
The test system of another test is Fusarium solani. The experiment in a line: Antifungal activity against Fusarium solani ATCC 36031 after 48 hrs by agar diffusion bioautography method. It counts as functional, organism-based.
The test system of test [1] is Candida albicans. Nature of the test: Antifungal activity against Candida albicans ATCC 90028 after 48 hrs by agar diffusion bioautography method. It counts as functional, organism-based.
Test [2] concerns Candida parapsilosis. The experiment in a line: Antifungal activity against Candida parapsilosis ATCC 22019 after 48 hrs by agar diffusion bioautography method. It is filed as functional, organism-based.
For test [3], the system named is Cryptococcus neoformans. The experiment in a line: Antifungal activity against Cryptococcus neoformans ATCC 14116 after 72 hrs by agar diffusion bioautography method. It is filed as functional, organism-based.
The test system of test [4] is Aspergillus niger. Nature of the test: Antifungal activity against Aspergillus niger ATCC 16404 after 48 hrs by agar diffusion bioautography method. It counts as functional, organism-based.
A short description of test [5]: Antifungal activity against Rhizopus stolonifer (+) ATCC 6227b after 48 hrs by agar diffusion bioautography method. It is filed as functional.
In test [6] the test system is Aspergillus niger. The experiment in a line: Antifungal activity against Aspergillus niger ATCC 16404 after 48 hrs by broth microdilution technique. It counts as functional. The following applies: ATCC 16404, 48 h.
Test [7] deals with Cryptococcus neoformans. Nature of the test: Antifungal activity against Cryptococcus neoformans ATCC 14116 after 72 hrs by broth microdilution technique. It counts as functional. Particulars: ATCC 14116, 72 h. On the technique in general: In broth dilution the organism is exposed to a series of concentrations in liquid medium.
The test system of test [8] is Candida albicans. Nature of the test: Antifungal activity against Candida albicans ATCC 90028 after 48 hrs by broth microdilution technique. The following applies: ATCC 90028, 48 h. It counts as functional.
Test [9] concerns Candida parapsilosis. The experiment in a line: Antifungal activity against Candida parapsilosis ATCC 22019 after 48 hrs by broth microdilution technique. It is filed as functional. The following applies: Lodderomyces parapsilosis, ATCC 22019, 48 h.
Test [10] in a line: Antifungal activity against Rhizopus stolonifer (+) ATCC 6227b after 48 hrs by broth microdilution technique. It is filed as functional.

Converted amounts (≈) assume the structure as drawn. The source made the active and inactive calls. The calls are words filed in the database; no cut-off is given here.

Consider `O=C(/C=C/c1ccc(OCc2ccccc2)c(-c2cc(/C=C/C(=O)c3ccc(OCc4ccccc4)cc3O)ccc2OCc2ccccc2)c1)c1ccc(OCc2ccccc2)cc1O`, for which the result (in the test with Aspergillus oryzae; with Fusarium solani; in the test with Candida albicans [1]; with Candida parapsilosis [2]; in the test on Aspergillus niger [4]; in test [5]) was inactive. For the same molecule, the outcome in the test on Cryptococcus neoformans [3] was Active.
For the molecule `O=C1CC(c2ccc(OCc3ccccc3)c(-c3cc(C4CC(=O)c5ccc(OCc6ccccc6)cc5O4)ccc3OCc3ccccc3)c2)Oc2cc(OCc3ccccc3)ccc21` (configuration not stated), the outcome in the test on Aspergillus oryzae, in the test with Fusarium solani, in the test on Candida albicans [1], in the test with Candida parapsilosis [2], in the test with Cryptococcus neoformans [3] and in the test on Aspergillus niger [4] was inactive. In addition, the outcome in [5] was inactive.
Consider `COc1ccc(-c2cc(=O)c3cc(-c4ccc5oc(-c6ccc(OC)cc6)cc(=O)c5c4)ccc3o2)cc1`, for which the outcome in the test with Aspergillus oryzae, with Fusarium solani, in the test with Candida albicans [1], with Candida parapsilosis [2], with Cryptococcus neoformans [3] and in the test with Aspergillus niger [4] was inactive. Further, in test [5], the outcome was inactive.
Regarding `COc1cc(O)c(C(=O)/C=C/c2ccc(OC)c(-c3cc(/C=C/C(=O)c4c(O)cc(OC)cc4OC)ccc3OC)c2)c(OC)c1`, the result (in the test on Aspergillus oryzae; with Fusarium solani; in the test on Candida albicans [1]; in the test with Candida parapsilosis [2]; in the test with Cryptococcus neoformans [3]; in [5]) was inactive. Also, the result with Aspergillus niger [4] was Active. In the test on Aspergillus niger [6], the MIC (usually the lowest concentration found to suppress growth) was determined as 13 µM (≈ 8.15 µg/mL).
As for `O=C(/C=C/c1ccccc1-c1ccccc1/C=C/C(=O)c1ccc(OCc2ccccc2)cc1O)c1ccc(OCc2ccccc2)cc1O`, the result (with Aspergillus oryzae; in the test on Fusarium solani; with Candida albicans [1]; in the test with Candida parapsilosis [2]; in test [5]) was inactive. In addition, the outcome in the test on Cryptococcus neoformans [3] and with Aspergillus niger [4] was Active. Besides, the MIC in the test with Cryptococcus neoformans [7] and in the test on Aspergillus niger [6] was > 800 µM throughout.
For `COc1ccc(/C=C/C(=O)c2c(O)cc(OC)cc2OC)cc1` [FLAVOKAWAIN A], the MIC in the test on Aspergillus niger [6] was > 800 µM.
Consider `O=C1CC(c2ccccc2-c2ccccc2C2CC(=O)c3ccc(OCc4ccccc4)cc3O2)Oc2cc(OCc3ccccc3)ccc21` (configuration not stated), for which the result in the test with Aspergillus oryzae, in the test on Fusarium solani, in the test on Candida albicans [1], with Candida parapsilosis [2], in the test with Cryptococcus neoformans [3] and in the test with Aspergillus niger [4] was inactive. In addition, the result in [5] was inactive.
As for `O=C1CC(c2ccc(OCc3ccccc3)c(-c3cc(C4CC(=O)c5c(O)cc(OCc6ccccc6)cc5O4)ccc3OCc3ccccc3)c2)Oc2cc(OCc3ccccc3)cc(O)c21` (configuration not stated), the outcome (in the test on Aspergillus oryzae; with Fusarium solani; with Candida parapsilosis [2]; in the test with Cryptococcus neoformans [3]; in the test on Aspergillus niger [4]; in [5]) was inactive. The result in the test with Candida albicans [1] was Active. Further, in the test with Candida albicans [8], the MIC was > 800 µM.
`COc1ccc(-c2cc(=O)c3c(OC)cc(OC)cc3o2)cc1` [TRIMETHYLAPIGENIN]: in the test with Aspergillus niger [6], the MIC was > 800 µM.
For the molecule `C[C@@H]1[C@H](O)[C@@H](C)/C=C/C=C/C=C/C=C/C=C/C=C/C=C/[C@H](O[C@@H]2O[C@H](C)[C@@H](O)[C@H](N)[C@@H]2O)C[C@@H]2O[C@](O)(C[C@@H](O)C[C@@H](O)[C@H](O)CC[C@@H](O)C[C@@H](O)CC(=O)O[C@H]1C)C[C@H](O)[C@H]2C(=O)O`, the result in the test on Aspergillus oryzae, with Fusarium solani, in the test with Candida albicans [1], in the test on Candida parapsilosis [2], in the test on Cryptococcus neoformans [3] and in the test with Aspergillus niger [4] was Active. The result in test [5] was Active.
Regarding `O=c1cc(-c2ccc(O)cc2)oc2ccccc12`, the minimal inhibitory concentration (MIC) in the test with Candida parapsilosis [9] stood at 200 µM (≈ 47.6 µg/mL).
For `O=C1C[C@@H](c2ccc(O)c(-c3cc([C@@H]4CC(=O)c5c(O)cc(O)cc5O4)ccc3O)c2)Oc2cc(O)cc(O)c21`, the outcome with Aspergillus oryzae, with Fusarium solani, in the test with Candida albicans [1], in the test with Candida parapsilosis [2], in the test with Cryptococcus neoformans [3] and in the test on Aspergillus niger [4] was inactive. Moreover, in [5], the outcome was inactive.
As to `O=C(/C=C/c1ccccc1)c1ccc(OCc2ccccc2)cc1O`, the MIC is > 800 µM in the test with Cryptococcus neoformans [7] and 100 µM (≈ 33 µg/mL) against Aspergillus niger [6].
In the case of `COc1cc(OC)c2c(=O)cc(-c3ccc(OC)c(-c4cc(-c5cc(=O)c6c(OC)cc(OC)cc6o5)ccc4OC)c3)oc2c1`, the result (in the test with Aspergillus oryzae; with Fusarium solani; in the test on Candida albicans [1]; in the test with Candida parapsilosis [2]; in the test with Cryptococcus neoformans [3]; in test [5]) was inactive. Moreover, the result in the test on Aspergillus niger [4] was Active. In addition, the MIC in the test on Aspergillus niger [6] is 400 µM (≈ 249 µg/mL).
For `O=c1cc(-c2ccccc2-c2ccccc2-c2cc(=O)c3ccccc3o2)oc2ccccc12`, the result in the test on Aspergillus oryzae, with Fusarium solani, with Candida albicans [1], in the test on Candida parapsilosis [2] and in the test with Cryptococcus neoformans [3] was inactive. The outcome (in the test on Aspergillus niger [4]; in test [5]) was Active. Besides, the MIC is > 800 µM against Aspergillus niger [6] and 800 µM (≈ 354 µg/mL) in test [10].
As to `O=C(/C=C/c1ccc(O)cc1)c1c(O)cc(O)cc1O` [4,2',4',6'-TETRAHYDROXYCHALCONE], the MIC against Candida albicans [8] is > 800 µM; in the test on Cryptococcus neoformans [7] it was 400 µM (≈ 109 µg/mL); in [10], 800 µM (≈ 218 µg/mL).
In the case of `O=c1c(O)c(-c2ccc(O)c(-c3cc(-c4oc5cc(O)cc(O)c5c(=O)c4O)ccc3O)c2)oc2cc(O)cc(O)c12`, the result with Aspergillus oryzae, with Fusarium solani, with Candida albicans [1], in the test with Candida parapsilosis [2], with Cryptococcus neoformans [3] and in the test with Aspergillus niger [4] was inactive. Besides, in test [5], the result was inactive.
`O=C1CC(c2ccccc2-c2ccccc2C2CC(=O)c3ccc(O)cc3O2)Oc2cc(O)ccc21` (configuration not stated): the result with Aspergillus oryzae, in the test with Fusarium solani, in the test on Candida albicans [1], in the test on Candida parapsilosis [2], in the test with Cryptococcus neoformans [3] and with Aspergillus niger [4] was inactive. In test [5], the result was inactive.
Turning to `O=c1cc(-c2ccc(O)cc2)oc2cc(O)cc(O)c12` [APIGENIN], the MIC against Aspergillus niger [6] is 6 µM (≈ 1.62 µg/mL).
Turning to `O=C1CC(c2ccc(OCc3ccccc3)cc2)Oc2cc(OCc3ccccc3)cc(O)c21` (configuration not stated), the minimal inhibitory concentration (MIC) in the test with Candida albicans [8] was > 800 µM.
Consider `O=C(/C=C/c1ccc(OCc2ccccc2)c(-c2cc(/C=C/C(=O)c3c(O)cc(OCc4ccccc4)cc3OCc3ccccc3)ccc2OCc2ccccc2)c1)c1c(O)cc(OCc2ccccc2)cc1OCc1ccccc1`, for which the result with Aspergillus oryzae, in the test on Fusarium solani, with Candida albicans [1], with Candida parapsilosis [2], in the test on Cryptococcus neoformans [3] and in the test on Aspergillus niger [4] was inactive. Moreover, the result in test [5] was inactive.
For the molecule `O=C1CC(c2ccc(O)cc2)Oc2cc(O)ccc21` (configuration not stated), the MIC in the test on Aspergillus niger [6] was > 800 µM.
For `O=C(/C=C/c1ccc(O)c(-c2cc(/C=C/C(=O)c3c(O)cc(O)cc3O)ccc2O)c1)c1c(O)cc(O)cc1O`, the result in the test on Aspergillus oryzae, with Fusarium solani, in the test on Candida parapsilosis [2] and in the test on Aspergillus niger [4] was inactive. Moreover, the outcome (in the test on Candida albicans [1]; with Cryptococcus neoformans [3]; in [5]) was Active. For the same molecule, the MIC amounted to 800 µM (≈ 434 µg/mL) in the test on Candida albicans [8], 13 µM (≈ 7.05 µg/mL) in the test on Cryptococcus neoformans [7] and 200 µM (≈ 108 µg/mL) in test [10].
Regarding `O=C1CC(c2ccc(O)c(-c3cc(C4CC(=O)c5ccc(O)cc5O4)ccc3O)c2)Oc2cc(O)ccc21` (configuration not stated), the result (in the test on Aspergillus oryzae; in the test with Fusarium solani; in the test on Candida albicans [1]; in the test on Candida parapsilosis [2]; in the test on Cryptococcus neoformans [3]; in test [5]) was inactive. The outcome in the test on Aspergillus niger [4] was Active. Moreover, in the test on Aspergillus niger [6], the MIC was 200 µM (≈ 102 µg/mL).
`O=c1cc(-c2ccc(O)c(-c3cc(-c4cc(=O)c5c(O)cc(O)cc5o4)ccc3O)c2)oc2cc(O)cc(O)c12`: the result (in the test on Aspergillus oryzae; in the test on Fusarium solani; with Candida albicans [1]; with Candida parapsilosis [2]; in the test with Cryptococcus neoformans [3]; in test [5]) was inactive. Further, the result in the test with Aspergillus niger [4] was Active. Besides, the MIC against Aspergillus niger [6] was 100 µM (≈ 53.8 µg/mL).

These data come from ChEMBL document CHEMBL1777672, “Synthesis and antifungal activities of natural and synthetic biflavonoids” (2011).
